# Results taken from article PMC12731536, “Sc(III) Complexes of Pyclen Derivative Ligands as Probes for Hypoxia: Synthesis, Chemical Characterization, ^44Sc‐Radiolabeling, and Preclinical Assessment” (Chemistry (Weinheim an Der Bergstrasse, Germany), 2025).
# Like-named read-outs stand apart in the source and are kept apart here.
# Columns and labels:
# [1] = pH‐potentiometric determination of ligand protonation constants; format: physicochemical; conditions: I = 1.00 M NaCl, T = 25 °C
# Experimental: The equilibrium study of the PC2AM^nBu ligand has been started by determining the protonation constants in 0.15 M and 1.00 M NaCl ionic strength. (As the stability of the Sc(III) complex was determined in 1.00 M ionic strength, we had to perform the pH‐potentiometric titration of ligands using 1.00 M ionic strengths also.) The results of pH‐potentiometric measurement are shown in Table 1, where the corresponding data for 3,9‐PC2A,^[ [42] ^] PCTA ^[ [46] ^] and PC2AM‐NI ligands determined under identical conditions are also presented. Knowledge of the protonation constants defined by Eqn. 1 and 2 are essential for the calculation of the stability constants of the Sc(III) complexes:
# (1) PC2AM^nBu^2−+nH^+⇌Hn(PC2AM^nBu)^−2+n (2) βn=HnPC2AM^nBu^−2+n/PC2AM^nBu^2−H^+^n
# The protonation constants of the ligands, as well as the concentrations of the ligand stock solutions, were determined by pH‐potentiometric method using a Metrohm 785 DMP Titrino automatic titrator using a Metrohm 6.00234.100 combined glass electrode. The titrations were carried out in the pH range 1.75–11.80 and the pH electrode was calibrated by a two‐point calibration routine with the use of 0.05 M KH‐phthalate (pH = 4.005) and 0.01 M borax (pH = 9.177 buffers. The samples were stirred at 25 °C (±0.1 °C) and N2 gas bubbled into the system to ensure inert conditions and to eliminate the effect of the presence of CO2. For the calculation of [H^+] from the measured pH values, the method proposed by Irving et al. was applied.^[ [61] ^] For this, a 0.01 M HCl solution was titrated with the standardized NaOH solution in the presence of 0.15 M NaCl ionic strength at 25 °C. The differences between the measured (pHread) and calculated pH (‐log[H^+]) values were used to obtain the equilibrium H^+ concentration from the pHmeas values during the titrations. By fitting the resulting titration curves (pH – V (NaOH) data pairs) with the PSEQUAD program, the protonation constants of the ligands were determined.^[ [47] ^] The titration of the [Sc(PC2AM^nBu)]^+ with NaOH was performed with the same method by applying very similar conditions.
# [2] = I = 0.15 M NaCl, T = 25 °C; cited from earlier work
# [3] = Time course of Sc(III) complex formation, 45Sc NMR; format: physicochemical; conditions: ‐log[H^+] = 1.28, 25 °C
# Experimental: The time course of complex formation of PC2AM^nBu and PCTA ligands with Sc(III) ion was investigated by ^45Sc‐NMR under acidic conditions (cSc = cligand = 10 mM and 9.5 mM, respectively, ‐log[H^+] = 1.28). The decrease of the narrow signal of the free Sc(III) ion was monitored as a function of time. […] The kinetic measurements of formation could be seen in Figures S18 and S19. The complexation for the [Sc(PCTA)] chelate at pH = 1.28 and 25 °C took about 300 minutes to reach the equilibrium, whereas for the [Sc(PC2AM^nBu)]^+ complex it took a bit longer time under these conditions. (In order to confirm that the samples reached the equilibrium, we have repeated the ^45Sc NMR study for both samples after a few days when the signal of the free Sc(III) was absent, and only the signals of the complexes were detected.) The detailed study of formation kinetics was not our aim in this project. One can expect that the reaction follows the well‐known mechanisms of M(III) ‐ macrocyclic APC systems ^[ [54] ^]: formation of a protonated intermediate in fast pre‐equilibrium followed by a slow, base‐catalyzed deprotonation/structural rearrangement as a rate‐determining step. The intermediate is named also as “out‐of‐cage complex.”^[ [55] ^] Our experimental curves are likely in accordance with this mechanism. Fitting the measured data for the free Sc(III) signals by a monoexponential function gives the rate constant k obs = (1.04 ± 0 .05) x 10^−4 s^−1 for the [Sc(PC2AM^nBu)]^+ and k obs = (2.51 ± 0.12) x 10^−4 s^−1 for the [Sc(PCTA)] complex. […] The relatively fast complex formation at the given acidic condition is very encouraging for the Sc(III) labeling experiments.
# ^45Sc NMR measurements (97 MHz) were performed on a Bruker DRX 400 (9.4 T) spectrometer equipped with a Bruker VT‐1000 thermocontroller and a BB inverse z‐gradient probe (5 mm). The kinetic experiments were performed at 25 °C in aqueous solution, using D2O (10% v/v) as a lock solvent. Typical parameters for 45Sc NMR measurements were used: TD = 32k, p1 = 15.6 µs (90°), d 1 = 0.1 s. The formation reactions of the [Sc(PC2AM^nBu)]^+ and [Sc(PCTA)] complexes were monitored by ^45Sc NMR spectroscopy in two sample types: one containing 10.0 mM PC2AM^nBu and ScCl3 / 9.5 mM […] and ScCl3. In both cases, the total acid concentration corresponded to a pH of 1.28. Obtained monoexponential curves (signal area of free Sc(III) vs. time) were fitted using Scientist software ^[ [62] ^] to determine the formation rate.
# [4] = Fluoride binding of [Sc(PC2AM^nBu)]^+ (ternary complex stability), 19F NMR titration; format: physicochemical; conditions: stability constant of the ternary fluoride complex, 19F NMR, pH = 5.2, I = 0.15 M NaCl, 25 °C
# Description: Sc(III) is a typical “hard” cation, forming very stable complexes with fluoride anion.^[ [51], [52] ^] […] The formation of the ternary [Sc(PC2AM^nBu)(F)] complex can be followed by […], as two sets of signals (Δδ ∼ 20 Hz) indicate a slow exchange regime on the […] time scale (Figure S16). Measuring the intensities of the free and bound fluoride signals, the stability constant (Eqn. 6) of the [Sc(PC2AM^nBu)(F)] complex (Eqn. 5) can be calculated (Table S1).
# (5) [Sc(PC2AM^nBu)]^++F^−⇌[Sc(PC2AM^nBu)(F)] (6) KScLF=ScPC2AM^nBuF/[ScPC2AM^nBu^+]F^−
# Table S1. Summary of data used for the calculation of the stability constant, log K[Sc(PC2AM^nBu)(F)] by titration of 0.005M [Sc(PC2AM^nBu)]^+ parent complex with different amounts of F^- (0.005 - 0.01 M concentration range) followed by 376.4 MHz ^19F NMR (I = 0.15 M NaCl, c Sc(PC2AM^nBu) = 5 mM, pH=5.20, T= 298 K).
Compound,log K 1 ^H [1],log K 2 ^H [1],log K 3 ^H [1],log K 4 ^H [1],log β 2 ^H [1],log K 1 ^H [2],log K 2 ^H [2],log K 3 ^H [2],log K 4 ^H [2],log β 2 ^H [2],half‐life of the complex formation reaction (t 1/2 = ln2 / k obs) [3] [min],log K ScLF [4]
"O=C(O)CN1CCN(CC(=O)O)Cc2cccc(n2)CN(CC(=O)O)CC1 [PCTA, reference compound]",9.22(6),7.30(8),4.09 (9),1.42(8),16.52,9.97,6.73,3.22,1.40,16.70,–,–
CCCCNC(=O)CN1CCN(CC(=O)[O-])Cc2cccc(n2)CN(CC(=O)[O-])CC1.[Sc+3] [[Sc(PC2AM^nBu)]^+],–,–,–,–,–,–,–,–,–,–,110,2.5(2)
